Results as given in article PMC8927117, “Structural Insight into the MCM double hexamer activation by Dbf4-Cdc7 kinase” (Nature Communications, 2022).

How the values were obtained:
DDK (Dbf4-Cdc7 kinase) = target: T1, DDK (Dbf4-Cdc7 kinase) (Saccharomyces cerevisiae, UniProt P06243); assay: cryo-EM structure; assay type: binding; conditions: bound to MCM double hexamer, glutaraldehyde Grafix, 1 mM ATP-γ-S, 8 mM Mg(OAc)2; Cdc7 active center
T1 construct: Dbf4 704 residues; with DDK kinase regulatory subunit DBF4

[1] = system: T2, MCM double hexamer (MCM-DH, Mcm2-7); assay: cryo-EM structure; set-up: species or system Saccharomyces cerevisiae; conditions: with DDK bound, nucleotide-binding pockets of MCM subunits
T2 construct: endogenous double hexamer from G1 chromatin, TEV-3xFLAG tag on Mcm7 or Mcm2

T1 sequence (P06243 whole entry): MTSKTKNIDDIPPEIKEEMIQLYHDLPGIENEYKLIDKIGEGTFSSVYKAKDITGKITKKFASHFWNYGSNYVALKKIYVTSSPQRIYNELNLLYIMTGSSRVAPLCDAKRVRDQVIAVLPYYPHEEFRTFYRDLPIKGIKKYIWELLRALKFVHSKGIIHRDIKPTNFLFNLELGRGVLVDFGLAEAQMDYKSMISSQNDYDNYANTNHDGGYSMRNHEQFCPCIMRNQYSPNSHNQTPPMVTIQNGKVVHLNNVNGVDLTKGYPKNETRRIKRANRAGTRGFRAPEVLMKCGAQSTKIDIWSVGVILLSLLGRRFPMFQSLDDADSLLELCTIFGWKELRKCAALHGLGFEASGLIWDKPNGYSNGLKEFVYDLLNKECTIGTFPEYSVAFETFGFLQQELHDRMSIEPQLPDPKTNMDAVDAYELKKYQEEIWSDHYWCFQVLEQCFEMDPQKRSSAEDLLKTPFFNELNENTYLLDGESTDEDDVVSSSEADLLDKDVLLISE
T1 sequence (P32325 whole entry partner): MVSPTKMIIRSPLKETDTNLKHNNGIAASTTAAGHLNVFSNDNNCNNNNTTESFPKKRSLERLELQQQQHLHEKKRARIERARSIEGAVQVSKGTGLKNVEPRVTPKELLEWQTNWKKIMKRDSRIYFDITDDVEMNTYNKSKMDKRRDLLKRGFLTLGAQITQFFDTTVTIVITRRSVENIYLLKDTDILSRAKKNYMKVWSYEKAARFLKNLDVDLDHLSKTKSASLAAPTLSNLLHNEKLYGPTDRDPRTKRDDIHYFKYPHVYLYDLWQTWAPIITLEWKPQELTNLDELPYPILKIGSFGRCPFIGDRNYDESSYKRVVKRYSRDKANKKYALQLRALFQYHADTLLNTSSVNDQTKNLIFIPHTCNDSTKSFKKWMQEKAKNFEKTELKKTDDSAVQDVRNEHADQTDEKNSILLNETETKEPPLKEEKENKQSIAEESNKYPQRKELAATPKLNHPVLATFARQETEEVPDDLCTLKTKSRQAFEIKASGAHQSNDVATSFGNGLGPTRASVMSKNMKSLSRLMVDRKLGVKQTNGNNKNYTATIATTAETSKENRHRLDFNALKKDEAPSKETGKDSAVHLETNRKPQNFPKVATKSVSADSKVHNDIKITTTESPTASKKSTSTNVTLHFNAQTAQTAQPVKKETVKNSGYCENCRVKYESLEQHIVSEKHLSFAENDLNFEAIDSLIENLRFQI

Structure (SMILES) | cryo-EM structure (DDK (Dbf4-Cdc7 kinase)) | cryo-EM structure ([1]; 1 mM ATP-γ-S) | cryo-EM structure ([1]; no ADP added)
Nc1ncnc2c1ncn2[C@@H]1O[C@H](COP(=O)(O)OP(=O)(O)OP(O)(O)=S)[C@@H](O)[C@H]1O [ATP-γ-S] | Thr506, is situated close to the γ-phosphate of the ATP-γ-S nucleotide in the active center | nucleotide-binding pockets of MCM subunits were modeled as ATP-γ-S or ADP | –
Nc1ncnc2c1ncn2[C@@H]1O[C@H](COP(=O)(O)OP(=O)(O)O)[C@@H](O)[C@H]1O [ADP] | – | – | nucleotide-binding pockets of MCM subunits were modeled as ATP-γ-S or ADP
